# Target: STING (Homo sapiens, UniProt Q86WV6, G230A/H232R/R293Q/R71H)
# Test: STING reporter assay: THP1-Dual KO-IFNAR2 cells stimulated with 2′3′cGAMP, luciferase reporter activity
# Format: cell-based
# Details: 15 μM 2′3′cGAMP, 24h, class symbols
# Method: STING pathway activation by the compounds described herein were measured using THP1-Dual™ cells (KO-IFNAR2).
# THP1-Dual™ KO-IFNAR2 Cells (obtained from invivogen) were maintained in RPMI, 10% FCS, 5 ml P/S, 2 mM L-glut, 10 mM Hepes, and 1 mM sodium pyruvate. Compounds were spotted in empty 384 well tissue culture plates (Greiner 781182) by Echo for a final concentration of 0.0017-100 μM. Cells were plated into the TC plates at 40 μL per well, 2×10E6 cells/mL. For activation with STING ligand, 2′3′cGAMP (MW 718.38, obtained from Invivogen), was prepared in Optimem media.
# The following solutions were prepared for each 1×384 plate: • Solution A: 2 mL Optimem with one of the following stimuli: • 60 uL of 10 mM 2′3′cGAMP ->150 μM stock • Solution B: 2 mL Optimem with 60 μL Lipofectamine 2000->Incubate 5 min at RT
# 2 mL of solution A and 2 ml Solution B was mixed and incubated for 20 min at room temperature (RT). 20 uL of transfection solution (A+B) was added on top of the plated cells, with a final 2′3′cGAMP concentration of 15 μM. The plates were then centrifuged immediately at 340 g for 1 minute, after which they were incubated at 37° C., 5% CO2, >98% humidity for 24h. Luciferase reporter activity was then measured. EC50 values were calculated by using standard methods known in the art.
# Luciferase reporter assay: 10 μL of supernatant from the assay was transferred to white 384-plate with flat bottom and squared wells. One pouch of QUANTI-Luc™ Plus was dissolved in 25 mL of water. 100 μL of QLC Stabilizer per 25 mL of QUANTI-Luc™ Plus solution was added. 50 μL of QUANTI-Luc™ Plus/QLC solution per well is then added. Luminescence is measured on a Platereader (e.g., Spectramax I3X (Molecular Devices GF3637001)).
# Luciferase reporter activity was then measured. EC50 values were calculated by using standard methods known in the art.
# Chain of STING (Q86WV6 whole entry R71H/G230A/H232R/R293Q): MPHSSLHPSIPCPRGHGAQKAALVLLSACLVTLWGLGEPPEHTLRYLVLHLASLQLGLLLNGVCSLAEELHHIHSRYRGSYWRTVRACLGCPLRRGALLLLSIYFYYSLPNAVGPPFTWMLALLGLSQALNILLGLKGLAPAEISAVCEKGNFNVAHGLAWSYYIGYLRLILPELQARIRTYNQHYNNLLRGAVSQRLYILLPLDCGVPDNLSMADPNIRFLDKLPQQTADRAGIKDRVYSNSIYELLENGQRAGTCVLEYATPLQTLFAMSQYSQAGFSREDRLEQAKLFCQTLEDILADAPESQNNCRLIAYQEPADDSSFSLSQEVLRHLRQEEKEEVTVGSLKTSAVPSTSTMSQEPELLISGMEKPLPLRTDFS
row,SMILES,EC50 [µM]
1,Cc1cc2ccc(C(F)(F)F)cc2nc1Nc1ccc2cc[nH]c2c1 [Compound 565],0.2 to 1
2,"CCOCc1ccc(Nc2ccc3cc[nH]c3c2)nc1 [Compound 412, N-(5-(ethoxymethyl)pyridin-2-yl)-1H-indol-6-amine]",5 to 100
3,O=C(Nc1ccc(S(F)(F)(F)(F)F)cc1)Nc1ccc2[nH]ccc2c1 [Compound 291],1 to 5
4,O=C(Nc1ccc2cc[nH]c2c1)Nc1ccc(N2CCC(F)(F)CC2)cn1 [Compound 249],1 to 5
5,CCCCCCCCCCCCCCCCNC(=O)Nc1ccc2cc[nH]c2c1 [Compound 235],0.2 to 1
6,N#Cc1c[nH]c2cc(NC(=O)Nc3cccc(C(F)(F)F)c3)ccc12 [Compound 539],5 to 100
7,"CC(C)(C)c1ccnc(Nc2ccc3cc[nH]c3c2)c1 [Compound 402, N-(4-(tert-butyl)pyridin-2-yl)-1H-indol-6-amine]",5 to 100
8,CC(C)CCNC(=O)Nc1ccc2cc[nH]c2c1 [Compound 215],1 to 5
9,O=C(Nc1cccc(S(=O)(=O)C(F)(F)F)c1)Nc1ccc2[nH]ccc2c1 [Compound 315],5 to 100
10,N#Cc1cc2cc(NC(=O)Nc3ccc(C(F)(F)F)cc3)ccc2[nH]1 [Compound 370],5 to 100
11,O=C(Nc1ccc(C(F)(F)F)cc1)Nc1cc(N2CCCC(Cn3cncn3)C2)c2cc[nH]c2c1 (stereo not shown) [Compound 572],5 to 100
12,O=C(Nc1cnc(N2CC(F)(F)C2)c(Cl)c1)Nc1ccc2c(F)c[nH]c2c1 [Compound 514],0.2 to 1
13,CC[C@H](NC(=O)Nc1ccc2cc[nH]c2c1)c1ccccc1 [Compound 222],5 to 100
14,O=C(NCCSCc1c(Cl)cccc1Cl)Nc1ccc2cc[nH]c2c1 [Compound 204],1 to 5
15,"Cn1ccc2ccc(Nc3ccc4ccc(C(F)(F)F)cc4n3)cc21 [Compound 608, N-(1-methyl-1H-indol-6-yl)-7-(trifluoromethyl)quinolin-2-amine]",5 to 100
16,O=C(Nc1ccc(N2CCC(F)(F)CC2)nc1)Nc1ccc2cc[nH]c2c1 [Compound 247],1 to 5
17,Cc1cc(NC(=O)Nc2ccc(C(F)(F)F)cc2)cc2[nH]cc(C#N)c12 [Compound 533],1 to 5
18,O=C(Nc1cccc(OC(F)F)c1)Nc1ccc2cc[nH]c2c1 [Compound 228],1 to 5
19,Cc1ccccc1CNC(=O)Nc1ccc2cc[nH]c2c1 [Compound 224],1 to 5
20,O=C(Nc1ccc(C(F)(F)F)cc1)Nc1ccc2c3c([nH]c2c1)CCCC3 [Compound 263],5 to 100
21,FC(F)(F)c1cc(Cl)c2ccc(Nc3ccc4cc[nH]c4c3)nc2c1 [Compound 564],0.2 to 1
22,FC(F)(F)c1ccc2cnc(Nc3ccc4cc[nH]c4c3)cc2c1 [Compound 388],1 to 5
23,CN(C)S(=O)(=O)c1cccc(NC(=O)Nc2ccc3cc[nH]c3c2)c1 [Compound 198],5 to 100

# More lines, now with the values ahead:
row,EC50 [µM],SMILES
1,1 to 5,O=C(Nc1ccc2cc[nH]c2c1)NC1CCc2ccc(C(F)(F)F)cc21 (stereo not shown) [Compound 181]
2,0.2 to 1,O=C(Nc1cc(F)cc(C(F)(F)F)c1)Nc1cc(Cl)c2cc[nH]c2c1 [Compound 153]
3,1 to 5,O=C(Nc1ccc(Oc2c(F)cccc2F)cc1)Nc1ccc2cc[nH]c2c1 [Compound 160]
4,5 to 100,"FC(F)(F)Oc1ccc(Nc2ccc3cc[nH]c3c2)nc1 [Compound 403, N-(5-(trifluoromethoxy)pyridin-2-yl)-1H-indol-6-amine]"
5,0.2 to 1,CCCCCCCCc1ccc(NC(=O)Nc2ccc3cc[nH]c3c2)cc1 [Compound 237]
6,1 to 5,CCc1ccc2ccc(Nc3ccc4cc[nH]c4c3)nc2c1 [Compound 385]
7,5 to 100,CN(C(=O)Nc1ccc(C(F)(F)F)cc1)c1ccc2cc[nH]c2c1 [Compound 264]
8,0.2 to 1,CC(NC(=O)Nc1cc(Cl)c2cc[nH]c2c1)c1cc(Cl)cc(C(F)(F)F)c1 (stereo not shown) [Compound 537]
9,1 to 5,Cc1cc(Nc2ccc3ccc(Cl)cc3n2)cc2[nH]ccc12 [Compound 387]
10,0.2 to 1,Cc1cc(NC(=O)Nc2ccc3cc[nH]c3c2)ccc1C#N [Compound 227]
11,0.04 to 0.2,O=C(Nc1cc(F)cc(C(F)(F)F)c1)Nc1ccc2cc[nH]c2c1 [Compound 252]
12,0.2 to 1,"Clc1cc(Cl)c2ccc(Nc3ccc4cc[nH]c4c3)nc2c1 [Compound 577, 5,7-dichloro-N-(1H-indol-6-yl)quinolin-2-amine]"
13,0.2 to 1,O=C(Nc1cc(F)cc(C(F)(F)F)c1)Nc1ccc2c(F)c[nH]c2c1 [Compound 535]
14,5 to 100,C#Cc1ccc(NC(=O)Nc2ccc3[nH]ccc3c2)cc1 [Compound 151]
15,1 to 5,COCCc1cc(NC(=O)Nc2ccc(C(F)(F)F)cc2)cc2[nH]ccc12 [Compound 505]
16,1 to 5,Cc1ccccc1CCNC(=O)Nc1ccc2cc[nH]c2c1 [Compound 212]
17,0.2 to 1,CC(C)c1ccc(-c2nnc(NC(=O)Nc3ccc4cc[nH]c4c3)s2)cc1 [Compound 182]
18,5 to 100,"O=S(=O)(c1ccc(Nc2ccc3cc[nH]c3c2)nc1)N1CCCCC1 [Compound 422, N-(5-(piperidin-1-ylsulfonyl)pyridin-2-yl)-1H-indol-6-amine]"
19,5 to 100,Cn1ccc2ccc(NC(=O)Nc3ccc(C(F)(F)F)cc3)cc21 [Compound 268]

# Same assay, conditions: 15 μM 2′3′cGAMP, 24h, numeric bounds
row,SMILES,EC50 [µM]
1,N#Cc1ccc(CNC(=O)Nc2ccc3cc[nH]c3c2)c(C(F)(F)F)c1 [Compound 159],> 30
2,N#Cc1c[nH]c2cc(NC(=O)NCc3cc(Cl)cc(C(F)(F)F)c3)ccc12 [Compound 532],> 30
3,N#Cc1c[nH]c2ccc(NC(=O)Nc3ccc(C(F)(F)F)cc3)cc12 [Compound 373],> 100
4,O=C(NCCc1ncc(C(F)(F)F)cc1Cl)Nc1ccc2[nH]ccc2c1 [Compound 290],> 30
5,O=C(NCCc1ccc(OC(F)(F)F)cc1)Nc1ccc2[nH]ccc2c1 [Compound 321],> 30
6,CC(C)c1ccc(NC(=O)Nc2ccc3[nH]ccc3c2)cc1 [Compound 347],> 30
7,CCCCC1CCC(NC(=O)Nc2ccc3[nH]c(C)cc3c2)CC1 (stereo not shown) [Compound 375],> 100
8,CN(C)S(=O)(=O)c1cccc(NC(=O)Nc2ccc3[nH]ccc3c2)c1 [Compound 312],> 30
9,O=C(NCc1ccc(OCC(F)(F)F)nc1)Nc1ccc2[nH]ccc2c1 [Compound 296],> 30
10,O=C(Nc1ccc(C(F)(F)F)cc1)Nc1ccc2cc(-c3ccccc3)[nH]c2c1 [Compound 256],> 100
11,CCCCC1CCC(NC(=O)Nc2ccc3cc(C)[nH]c3c2)CC1 (stereo not shown) [Compound 266],> 100
12,N#Cc1cc(F)cc(NC(=O)Nc2ccc3[nH]ccc3c2)c1 [Compound 307],> 30
13,N#Cc1ccc(CNC(=O)Nc2ccc3[nH]ccc3c2)c(C(F)(F)F)c1 [Compound 276],> 30
14,O=C(Nc1ccc2c(F)c[nH]c2c1)Nc1ccc(N2CC(F)(F)C2)cn1 [Compound 515],> 30

# Next, values leading:
row,EC50 [µM],SMILES
1,> 30,CCn1cc(CNC(=O)Nc2ccc3cc[nH]c3c2)cn1 [Compound 180]
2,> 30,Cn1cc(-c2c[nH]c3ccc(NC(=O)Nc4ccc(C(F)(F)F)cc4)cc23)cn1 [Compound 366]
3,> 30,O=C(NCCc1cccc(Cl)c1)Nc1ccc2[nH]ccc2c1 [Compound 354]
4,> 30,O=C(NCCc1ccccc1)Nc1ccc2cc[nH]c2c1 [Compound 187]
5,> 30,O=C(NCCc1c(F)cccc1Cl)Nc1ccc2[nH]ccc2c1 [Compound 323]
6,> 30,"Cc1nc(Nc2ccc3ccn(-c4ccc(OC(C)C)c(C)n4)c3c2)ccc1OC(C)C [Compound 569, N,1-bis[6-methyl-5-(propan-2-yloxy)pyridin-2-yl]-1H-indol-6-amine]"
7,> 30,O=C(Nc1ccc2cc[nH]c2c1)Nc1cnccn1 [Compound 220]
8,> 30,CC(CNC(=O)Nc1ccc2cc[nH]c2c1)c1ccccc1 (stereo not shown) [Compound 213]
9,> 30,O=C(NCC1(c2cccc(Cl)c2)CCOCC1)Nc1ccc2cc[nH]c2c1 [Compound 154]
10,> 30,CC(C)(C)n1cc(NC(=O)Nc2ccc3[nH]ccc3c2)cn1 [Compound 332]
11,> 7.38,Cc1c(NC(=O)Nc2ccc(C(F)(F)F)cc2)ccc2c(C#N)c[nH]c12 [Compound 526]
12,> 30,Cc1ccccc1CNC(=O)Nc1ccc2[nH]ccc2c1 [Compound 338]
13,> 30,c1cc2ccc(Nc3ccc4c(n3)CCC4)nc2[nH]1 [Compound 566]
14,> 30,O=C(Nc1cnc2cc(C(F)(F)F)ccc2c1)Nc1ccc2[nH]ccc2c1 [Compound 285]
15,> 30,"c1cc2ccc(Nc3ccc4c(cnn4C4CCCCO4)n3)cc2[nH]1 (stereo not shown) [Compound 600, N-[1-(oxan-2-yl)-1H-pyrazolo[4,3-b]pyridin-5-yl]-1H-indol-6-amine]"
16,> 30,CCc1ccccc1NC(=O)Nc1ccc2cc[nH]c2c1 [Compound 229]
17,> 30,Cc1ccc(CNC(=O)Nc2ccc3[nH]ccc3c2)cc1C [Compound 337]

# Source: US20230092163A1, “COMPOUNDS AND COMPOSITIONS FOR TREATING CONDITIONS ASSOCIATED WITH STING ACTIVITY” (IFM Due, Inc., priority 2019, published 2023)
